Starred links: 1 amine or outer side, 2 acyl side, 3 side chain; linkers in the order of their positions; H or OH if unused. Positions of bridges follow the written chain, without caps; N, C: chain ends. Non-standard residues stand in square brackets, D forms with d. Residues, ends and D or L forms follow the SMILES beside them. Chains are numbered I, II in the order given. Actinocin(9to1) = Cc1c2oc3c(C)ccc(C(=O)[*:1])c3nc-2c(C(=O)[*:2])c(N)c1=O; NMeV = CN[C@H](C(=O)O)C(C)C; Sar = CNCC(=O)O
Species: Rattus norvegicus
Test: DrugMatrix - Regimen: Daily Repeat
Format: toxicity, organism-based, Sprague-Dawley
Parameters: regimen Daily Repeat, gender Male, age 6-8 weeks
Conditions: in vivo, iv, vehicle 100 % SALINE; for ABSOLUTE BASOPHIL / ABSOLUTE EOSINOPHIL / ABSOLUTE LYMPHOCYTE / ABSOLUTE MONOCYTE / ABSOLUTE SEGMENTED NEUTROPHIL / BASOPHIL / EOSINOPHIL / ERYTHROCYTE COUNT / HEMATOCRIT / HEMOGLOBIN / LEUKOCYTE COUNT / LYMPHOCYTE / MEAN CORPUSCULAR HEMOGLOBIN / MEAN CORPUSCULAR HEMOGLOBIN CONCENTRATION / MEAN CORPUSCULAR VOLUME / MONOCYTE / NEUTROPHIL / NUCLEATED RED BLOOD CELLS / PLATELET COUNT: tissue Blood; for ALANINE AMINOTRANSFERASE / ALBUMIN / ALKALINE PHOSPHATASE / ASPARTATE AMINOTRANSFERASE / BLOOD UREA NITROGEN / CARBON DIOXIDE / CHLORIDE / CHOLESTEROL / CREATINE PHOSPHOKINASE / CREATININE / GLUCOSE / LACTATE DEHYDROGENASE / LIPASE / PHOSPHORUS / POTASSIUM / SODIUM / TOTAL BILIRUBIN / TOTAL PROTEIN / URIC ACID: tissue Plasma
[1] = 0.006 mg/kg, 120 h, dose level Low, time 5 day
[2] = 0.06 mg/kg, 72 h, dose level High, time 3 day
[3] = 0.06 mg/kg, 120 h, dose level High, time 5 day

Cc1c2oc3c(C)ccc(C(=O)N[C@@H]4C(=O)N[C@H](C(C)C)C(=O)N5CCC[C@H]5C(=O)N(C)CC(=O)N(C)[C@@H](C(C)C)C(=O)O[C@@H]4C)c3nc-2c(C(=O)N[C@@H]2C(=O)N[C@H](C(C)C)C(=O)N3CCC[C@H]3C(=O)N(C)CC(=O)N(C)[C@@H](C(C)C)C(=O)O[C@@H]2C)c(N)c1=O [DACTINOMYCIN] (I: T[dV]P[Sar][NMeV] / II: T[dV]P[Sar][NMeV]; ester I:1-I:C, II:1-II:C; linker I:N-II:N via Actinocin(9to1))
ABSOLUTE BASOPHIL [1]: 0 CELLS/uL | ABSOLUTE EOSINOPHIL [1]: 221.33 CELLS/uL | ABSOLUTE LYMPHOCYTE [1]: 12705.67 CELLS/uL | ABSOLUTE MONOCYTE [1]: 103.33 CELLS/uL | ABSOLUTE SEGMENTED NEUTROPHIL [1]: 1369.67 CELLS/uL | BASOPHIL [1]: 0% | EOSINOPHIL [1]: 1.33% | ERYTHROCYTE COUNT [1]: 5.39 x10E6/uL | HEMATOCRIT [1]: 33.7% | HEMOGLOBIN [1]: 13.67 G/DL | LEUKOCYTE COUNT [1]: 14.4 x10E3/uL | LYMPHOCYTE [1]: 88.67% | MEAN CORPUSCULAR HEMOGLOBIN [1]: 25.37 pg | MEAN CORPUSCULAR HEMOGLOBIN CONCENTRATION [1]: 40.57 G/DL | MEAN CORPUSCULAR VOLUME [1]: 62.57 fL | MONOCYTE [1]: 0.67% | NEUTROPHIL [1]: 9.33% | NUCLEATED RED BLOOD CELLS [1]: 0 /100WBC | PLATELET COUNT [1]: 1209 x10E3/uL | ALANINE AMINOTRANSFERASE [1]: 51 u/L | ALBUMIN [1]: 4.1 G/DL | ALKALINE PHOSPHATASE [1]: 297 u/L | ASPARTATE AMINOTRANSFERASE [1]: 130.67 u/L | BLOOD UREA NITROGEN [1]: 15 mg/dL | CARBON DIOXIDE [1]: 27.33 mmol/L | CHLORIDE [1]: 102 MEQ/L | CHOLESTEROL [1]: 77 mg/dL | CREATINE PHOSPHOKINASE [1]: 1455.33 u/L | CREATININE [1]: 0.22 mg/dL | GLUCOSE [1]: 155.33 mg/dL | LACTATE DEHYDROGENASE [1]: 798.33 u/L | LIPASE [1]: 10.33 u/L | PHOSPHORUS [1]: 11.03 mg/dL | POTASSIUM [1]: 5.31 MEQ/L | SODIUM [1]: 143.1 MEQ/L | TOTAL BILIRUBIN [1]: 0.17 mg/dL | TOTAL PROTEIN [1]: 6.13 G/DL | URIC ACID [1]: 1.37 mg/dL | ABSOLUTE BASOPHIL [2]: 0 CELLS/uL | ABSOLUTE EOSINOPHIL [2]: 0 CELLS/uL | ABSOLUTE LYMPHOCYTE [2]: 13952.33 CELLS/uL | ABSOLUTE MONOCYTE [2]: 166 CELLS/uL | ABSOLUTE SEGMENTED NEUTROPHIL [2]: 748.33 CELLS/uL | BASOPHIL [2]: 0% | EOSINOPHIL [2]: 0% | ERYTHROCYTE COUNT [2]: 5.81 x10E6/uL | HEMATOCRIT [2]: 35.17% | HEMOGLOBIN [2]: 13.97 G/DL | LEUKOCYTE COUNT [2]: 14.87 x10E3/uL | LYMPHOCYTE [2]: 93.67% | MEAN CORPUSCULAR HEMOGLOBIN [2]: 24.13 pg | MEAN CORPUSCULAR HEMOGLOBIN CONCENTRATION [2]: 39.8 G/DL | MEAN CORPUSCULAR VOLUME [2]: 60.7 fL | MONOCYTE [2]: 1% | NEUTROPHIL [2]: 5.33% | NUCLEATED RED BLOOD CELLS [2]: 0 /100WBC | PLATELET COUNT [2]: 1121.67 x10E3/uL | ALANINE AMINOTRANSFERASE [2]: 41.67 u/L | ALBUMIN [2]: 4.4 G/DL | ALKALINE PHOSPHATASE [2]: 262.67 u/L | ASPARTATE AMINOTRANSFERASE [2]: 85.33 u/L | BLOOD UREA NITROGEN [2]: 15.67 mg/dL | CARBON DIOXIDE [2]: 26 mmol/L | CHLORIDE [2]: 99.67 MEQ/L | CHOLESTEROL [2]: 81.33 mg/dL | CREATINE PHOSPHOKINASE [2]: 562.67 u/L | CREATININE [2]: 0.16 mg/dL | GLUCOSE [2]: 154.33 mg/dL | LACTATE DEHYDROGENASE [2]: 357.33 u/L | LIPASE [2]: 10.33 u/L | PHOSPHORUS [2]: 11.93 mg/dL | POTASSIUM [2]: 6.38 MEQ/L | SODIUM [2]: 140.17 MEQ/L | TOTAL BILIRUBIN [2]: 0.2 mg/dL | TOTAL PROTEIN [2]: 6.13 G/DL | URIC ACID [2]: 1.6 mg/dL | ABSOLUTE BASOPHIL [3]: 0 CELLS/uL | ABSOLUTE EOSINOPHIL [3]: 0 CELLS/uL | ABSOLUTE LYMPHOCYTE [3]: 13429.67 CELLS/uL | ABSOLUTE MONOCYTE [3]: 267.67 CELLS/uL | ABSOLUTE SEGMENTED NEUTROPHIL [3]: 1069.33 CELLS/uL | BASOPHIL [3]: 0% | EOSINOPHIL [3]: 0% | ERYTHROCYTE COUNT [3]: 5.63 x10E6/uL | HEMATOCRIT [3]: 35% | HEMOGLOBIN [3]: 13.77 G/DL | LEUKOCYTE COUNT [3]: 14.77 x10E3/uL | LYMPHOCYTE [3]: 90.67% | MEAN CORPUSCULAR HEMOGLOBIN [3]: 24.5 pg | MEAN CORPUSCULAR HEMOGLOBIN CONCENTRATION [3]: 39.37 G/DL | MEAN CORPUSCULAR VOLUME [3]: 62.17 fL | MONOCYTE [3]: 1.67% | NEUTROPHIL [3]: 7.67% | NUCLEATED RED BLOOD CELLS [3]: 0 /100WBC | PLATELET COUNT [3]: 1163.67 x10E3/uL | ALANINE AMINOTRANSFERASE [3]: 41 u/L | ALBUMIN [3]: 4.2 G/DL | ALKALINE PHOSPHATASE [3]: 279.33 u/L | ASPARTATE AMINOTRANSFERASE [3]: 79.33 u/L | BLOOD UREA NITROGEN [3]: 19.33 mg/dL | CARBON DIOXIDE [3]: 29 mmol/L | CHLORIDE [3]: 99.67 MEQ/L | CHOLESTEROL [3]: 62.33 mg/dL | CREATINE PHOSPHOKINASE [3]: 327.33 u/L | CREATININE [3]: 0.23 mg/dL | GLUCOSE [3]: 148.67 mg/dL | LACTATE DEHYDROGENASE [3]: 429.67 u/L | LIPASE [3]: 10 u/L | PHOSPHORUS [3]: 12.3 mg/dL | POTASSIUM [3]: 6.67 MEQ/L | SODIUM [3]: 140.87 MEQ/L | TOTAL BILIRUBIN [3]: 0.23 mg/dL | TOTAL PROTEIN [3]: 6.2 G/DL | URIC ACID [3]: 1.7 mg/dL
